Results reported in patent US10881716B2, “Rapid-acting insulin formulation comprising a substituted anionic compound” (ADOCIA, priority 2012, dated 2021).
Counter-ions that a name gives are not always drawn.

Columns and labels:
[1] = biological target: T1, lispro insulin (R6 hexameric form) (Homo sapiens, UniProt P01308, K53P/P52K); assay: Association state of lispro insulin evaluated by circular dichroism (CD signal at 251 nm); format: physicochemical; conditions: D1, FIG. 11; Humalog + 9.3 mM citrate, 6 mM EDTA, 7.3 mg/ml Compound 1, 20 mg/ml Polyanionic compound 1
T1 construct: purchased Eli Lilly Humalog®
Source text: (§1) Circular dichroism makes it possible to study the secondary and quaternary structure of insulin. The insulin monomers are organized as dimers and as hexamers. […] Two hexameric forms exist, the R6 form and the T6 form. […] Loss of the CD signal at 251 nm is linked to destabilization of the hexamer (and thus the first sign of transformation of the hexamer into dimer).
as §1, with “dimer). […]” for “dimer).”

[2] = biological target: human insulin (hexameric form) (Homo sapiens, UniProt P01308); assay: Association state of human insulin evaluated by circular dichroism (CD signal at 275 nm); format: physicochemical; conditions: D2, FIG. 12; rhINS + 9.3 mM citrate, 6 mM EDTA, 7.3 mg/ml Compound 1, 20 mg/ml Polyanionic compound 1
Description: (§2) Circular dichroism makes it possible to study the secondary and quaternary structure of insulin. The insulin monomers are organized as dimers and as hexamers. […] The CD signal at 275 nm is characteristic of the hexameric form of insulin (hexamer signal at about −300°, signal for the dimer between −200° and −250°, and signal for the monomer below −200°. Loss of the CD signal at 275 nm is therefore characteristic of destabilization of the hexamer into dimers or monomers.
as §2, with “−200°).” for “−200°.”

[3] = pH at which the insulin precipitates; cited from earlier work
[4] = biological target: BSA (bovine serum albumin) (Bos taurus, UniProt P02769); assay: Interaction with albumin, Centricon test (50 kDa membrane), UV assay of the filtrate; format: binding; conditions: 2.43 mg/mL of polysaccharide or compound, 13.3 mg/mL of albumin in PBS, about 100 mM of salts
Description: F1: In order to determine the interactions between the various polysaccharides or compounds and a model protein such as albumin, a Centricon test (membrane with a cut-off threshold of 50 kDa) was performed. A solution of polysaccharide or of compound at 7.3 mg/mL was diluted three-fold in a solution of BSA (bovine serum albumin) at 20 mg/mL in PBS (concentration in the mixture: 2.43 mg/mL of polysaccharide or of compound, 13.3 mg/mL of albumin and about 100 mM of salts).
This mixture was centrifuged on a Centricon to make about half the volume pass through the membrane. The albumin is quantitatively retained on the Centricon membrane. The polysaccharides and compounds analyzed alone pass in large majority through the membrane (for the polysaccharides having the largest molar masses, about 20% of the polysaccharide is retained).
After centrifugation, the polysaccharide or compound is assayed by UV in the filtrate. The percentage of polysaccharide or compound bound to the albumin is calculated via the following equation:
(1-[polysaccharide or compound in the filtrate in the presence of albumin]/[polysaccharide or compound in the filtrate in the absence of albumin])*100

[5] = biological target: human insulin (Homo sapiens, UniProt P01308); assay: Dissolution of human insulin at its isoelectric point (pH 5.3); format: binding; conditions: translucent = Yes, turbid = No
Description: If an interaction exists, it is possible to dissolve the insulin at its isoelectric point. […] Solutions of compounds at different concentrations (8, 30 or 100 mg/mL) in water are prepared. […] The pH of the various solutions is adjusted to pH 5.3 by adding 200 mM acetic acid. The appearance of the solution is documented.

[6] = test system: man; conditions: subcutaneously-injected, diabetic patients; cited from earlier work

human insulin (hexameric form), sequence (P01308 25-54 limits assumed): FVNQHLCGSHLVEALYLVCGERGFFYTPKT
human insulin (hexameric form), sequence (P01308 90-110 limits assumed): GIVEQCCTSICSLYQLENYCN
human insulin, sequence (P01308 25-54 limits assumed): as the sequence (P01308 25-54 limits assumed) above
BSA (bovine serum albumin), sequence (P02769 25-607): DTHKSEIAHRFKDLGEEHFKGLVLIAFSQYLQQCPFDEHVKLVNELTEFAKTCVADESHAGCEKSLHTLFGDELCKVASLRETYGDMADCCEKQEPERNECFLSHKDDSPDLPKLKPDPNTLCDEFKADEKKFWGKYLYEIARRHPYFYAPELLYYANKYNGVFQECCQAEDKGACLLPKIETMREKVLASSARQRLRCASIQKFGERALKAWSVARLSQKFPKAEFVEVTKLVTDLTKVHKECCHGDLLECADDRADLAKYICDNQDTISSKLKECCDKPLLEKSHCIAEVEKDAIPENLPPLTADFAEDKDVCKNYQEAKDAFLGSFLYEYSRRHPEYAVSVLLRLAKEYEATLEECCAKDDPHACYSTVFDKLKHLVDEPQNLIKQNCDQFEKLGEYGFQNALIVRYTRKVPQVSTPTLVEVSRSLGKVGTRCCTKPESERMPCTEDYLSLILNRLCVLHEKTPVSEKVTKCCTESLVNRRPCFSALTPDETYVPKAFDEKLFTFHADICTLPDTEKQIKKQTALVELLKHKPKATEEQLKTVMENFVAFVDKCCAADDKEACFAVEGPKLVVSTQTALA
T1 sequence (P01308 25-54 P52K/K53P limits assumed): as the sequence (P01308 25-54 limits assumed) above, with P28K, K29P counted along it

| % Polysaccharide or % Compound bound to BSA [4] | Dissolution of human insulin at 100 IU/mL with the compound at 4 mg/mL [5] | Dissolution of human insulin at 100 IU/mL with the compound at 15 mg/mL [5] | Dissolution of human insulin at 100 IU/mL with the compound at 50 mg/mL [5] | Compound | impact on the CD signal at 275 nm / hexameric structure of human insulin [2] | other results |
| --- | --- | --- | --- | --- | --- | --- |
| – | – | – | – | O=C(O)CN(CCN(CC(=O)O)CC(=O)O)CC(=O)O [EDTA, reference compound] | total dissociation of the hexamer into dimers | impact on the CD signal at 251 nm / R6 hexameric form of lispro insulin [1]: completely destructure the R6 form of lispro insulin |
| – | – | – | – | O=C(O)CC(O)(CC(=O)O)C(=O)O [citrate, sodium citrate] | no impact on the hexameric structure of human insulin | impact on the CD signal at 251 nm / R6 hexameric form of lispro insulin [1]: virtually no impact on the CD signal at 251 nm |
| – | – | – | – | Lispro insulin: rapid insulin analog, active principle of Humalog | – | isoelectric point [3]: 5.3 |
| 43% | No | No | Yes | Sodium Maltooctaosemethylcarboxylate Functionalized with Sodium L-Phenylalaninate [Compound 9] | – | – |
| 27% | No | No | Yes | Sodium Maltopentaosemethylcarboxylate Functionalized with Sodium L-Phenylalaninate [Compound 8] | – | – |
| 35% | – | – | – | Sodium Maltotriosemethylcarboxylate Functionalized with Sodium Alpha-Phenylglycinate [Compound 11] | – | – |
| – | No | No | Yes | Sodium Maltotriosemethylcarboxylate Functionalized with Sodium L-Tyrosinate [Compound 10] | – | – |
| – | – | – | – | Sodium Maltotriosemethylcarboxylate [Polyanionic compound 1] | no impact on the hexameric structure of human insulin | – |
| – | – | – | – | human insulin: insulin obtained by synthesis or recombination, whose peptide sequence is the sequence of human insulin | – | hypoglycemiant effect only after [6]: 60 min |
